Where two headings read alike, the source gives them in different places.
Key:
ENPP-1 ECD [1] = target: T1, ENPP-1 ECD (Homo sapiens (Human), UniProt P22413); experiment: Assay 2: inhibition of ENPP1 hydrolysis of 2′,3′-cGAMP (AMP-Glo, […] enzyme)
Experimental: Assay 2: Compared to the conditions in Assay 1, this assay has a larger dynamic range and ensures the system is under steady-state conditions by reducing the enzyme concentration in the assay.
Test compounds were plated in a 3× dilution scheme in a 384 well plate. […] AMP Detection solution (10 μL) was added to each well, the plate centrifuged and incubated for 60 min.

ENPP-1 ECD [2] = target: T1, ENPP-1 ECD; experiment: Assay 1: inhibition of ENPP1 hydrolysis of 2′,3′-cGAMP (AMP-Glo, […] enzyme)
Experimental: Assay 1: Test compounds were plated in a 3× dilution scheme in a 384 well plate. […] AMP Detection solution (100 μL) was added to each well, the plate centrifuged and incubated for 60 min.

[3] = target: ENPP1 on MDA-MB-231 cells (Homo sapiens (Human), UniProt P22413); experiment: Assay 3: inhibition of ENPP1 hydrolysis of AMP p-nitrophenyl ester on MDA-MB-231 cells
Experimental: Hydrolysis of the p-nitrophenyl ester of AMP (pNP-AMP), an isostere of ATP, is selectively catalyzed by ENPP1 in the supernatant of MDA-MB-231 cell cultures. Inhibition of the hydrolysis of pNP-AMP by MDA-MB-231 at pH 7.4 and 37° C., is a good model of physiologically relevant activity of membrane-bound ENPP1 at disease-relevant expression levels.
MDA-MB-231 cells were harvested using TypLE Express Enzyme digestion and suspended in 100 μL of Leibovitz's L-15 Medium, 20% FBS, seeding the cells in a 96-well assay plate with 4.5×10^4 cells/well. Cells were incubated at 37° C. with 1% CO2 for 24 h. In a separate dilution plate, 2× of top dose of compound was prepared in phenol-red free 1640 medium without FBS and then 1:3 serial diluted in the same medium. The cell culture medium of L15 medium was aspirated carefully and cells were washed with PBS once, and 50 μL per well of test compound or DMSO blank were added to the assay plate. Substrate mix (50 μL; 0.5 mM pNP-AMP in phenol-red free 1640 media without FBS) was added for a pNP-AMP final concentration of 0.25 mM. The system was incubated at 37° C. for 3 h.

[4] = Assay 2 (KI), ENPP1 hydrolysis of 2′,3′-cGAMP, AMP-Glo, […] ENPP-1, 24 μM cGAMP
[5] = Assay 2 (KI), inhibition of ENPP1 hydrolysis of 2′,3′-cGAMP, no unit in Table 18 (Table 17 legend for this assay uses nM)
[6] = Assay 1 (IC50), inhibition of ENPP1 hydrolysis of 2′,3′-cGAMP, no unit in Table 18 (Table 17 legend for this assay uses nM)
[7] = read-out: Assay 1 (IC50), ENPP1 hydrolysis of 2′,3′-cGAMP, AMP-Glo
[8] = read-out: Assay 2 (KI), ENPP1 hydrolysis of 2′,3′-cGAMP, AMP-Glo, […] ENPP-1, 24 μM cGAMP
[9] = read-out: Assay 2 (KI), inhibition of ENPP1 hydrolysis of 2′,3′-cGAMP, no unit in Table 18 (Table 17 legend for this assay uses nM)
[10] = read-out: Assay 1 (IC50), inhibition of ENPP1 hydrolysis of 2′,3′-cGAMP, no unit in Table 18 (Table 17 legend for this assay uses nM)
[11] = read-out: Assay 3 (KI, app), apparent KI from IC50 via Cheng/Prusoff, pNP-AMP […], MDA-MB-231 cells, pH 7.4, 37° C., 3 h, unit inferred
[12] = IC50 in Assay 1, […] ENPP-1 ECD, 24 μM 2,3-cGAMP, pH 8.0
[13] = Assay 1 (IC50), ENPP1 hydrolysis of 2′,3′-cGAMP, AMP-Glo
[14] = KI in Assay 2, […] ENPP-1 ECD, 24 μM 2,3-cGAMP, pH 8.0, converted from IC50 via Cheng/Prusoff

Chain of ENPP1 on MDA-MB-231 cells (P22413 whole entry): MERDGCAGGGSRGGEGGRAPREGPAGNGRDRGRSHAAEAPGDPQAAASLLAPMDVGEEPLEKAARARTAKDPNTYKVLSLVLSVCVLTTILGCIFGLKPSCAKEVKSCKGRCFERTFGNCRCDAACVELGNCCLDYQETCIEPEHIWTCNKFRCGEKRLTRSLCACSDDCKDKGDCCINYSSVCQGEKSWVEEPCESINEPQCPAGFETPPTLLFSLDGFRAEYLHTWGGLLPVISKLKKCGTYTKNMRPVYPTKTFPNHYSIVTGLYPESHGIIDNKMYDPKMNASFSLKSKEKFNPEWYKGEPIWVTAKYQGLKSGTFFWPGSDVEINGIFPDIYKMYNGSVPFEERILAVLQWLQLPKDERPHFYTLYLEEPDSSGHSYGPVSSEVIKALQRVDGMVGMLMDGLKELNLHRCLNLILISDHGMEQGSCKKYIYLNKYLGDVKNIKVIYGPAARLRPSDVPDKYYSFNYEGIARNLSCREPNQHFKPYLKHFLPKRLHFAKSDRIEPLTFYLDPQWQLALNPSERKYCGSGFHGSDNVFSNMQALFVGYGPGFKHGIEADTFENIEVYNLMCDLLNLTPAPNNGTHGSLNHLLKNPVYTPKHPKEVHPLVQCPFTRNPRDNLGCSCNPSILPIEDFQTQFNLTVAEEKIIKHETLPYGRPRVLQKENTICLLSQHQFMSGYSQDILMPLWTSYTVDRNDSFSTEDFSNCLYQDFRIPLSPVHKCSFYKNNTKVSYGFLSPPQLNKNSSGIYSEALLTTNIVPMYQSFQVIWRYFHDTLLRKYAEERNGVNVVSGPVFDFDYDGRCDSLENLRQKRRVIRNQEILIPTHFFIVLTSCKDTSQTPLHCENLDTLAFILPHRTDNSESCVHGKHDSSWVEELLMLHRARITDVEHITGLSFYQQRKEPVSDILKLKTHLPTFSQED
T1 sequence (P22413 98-925): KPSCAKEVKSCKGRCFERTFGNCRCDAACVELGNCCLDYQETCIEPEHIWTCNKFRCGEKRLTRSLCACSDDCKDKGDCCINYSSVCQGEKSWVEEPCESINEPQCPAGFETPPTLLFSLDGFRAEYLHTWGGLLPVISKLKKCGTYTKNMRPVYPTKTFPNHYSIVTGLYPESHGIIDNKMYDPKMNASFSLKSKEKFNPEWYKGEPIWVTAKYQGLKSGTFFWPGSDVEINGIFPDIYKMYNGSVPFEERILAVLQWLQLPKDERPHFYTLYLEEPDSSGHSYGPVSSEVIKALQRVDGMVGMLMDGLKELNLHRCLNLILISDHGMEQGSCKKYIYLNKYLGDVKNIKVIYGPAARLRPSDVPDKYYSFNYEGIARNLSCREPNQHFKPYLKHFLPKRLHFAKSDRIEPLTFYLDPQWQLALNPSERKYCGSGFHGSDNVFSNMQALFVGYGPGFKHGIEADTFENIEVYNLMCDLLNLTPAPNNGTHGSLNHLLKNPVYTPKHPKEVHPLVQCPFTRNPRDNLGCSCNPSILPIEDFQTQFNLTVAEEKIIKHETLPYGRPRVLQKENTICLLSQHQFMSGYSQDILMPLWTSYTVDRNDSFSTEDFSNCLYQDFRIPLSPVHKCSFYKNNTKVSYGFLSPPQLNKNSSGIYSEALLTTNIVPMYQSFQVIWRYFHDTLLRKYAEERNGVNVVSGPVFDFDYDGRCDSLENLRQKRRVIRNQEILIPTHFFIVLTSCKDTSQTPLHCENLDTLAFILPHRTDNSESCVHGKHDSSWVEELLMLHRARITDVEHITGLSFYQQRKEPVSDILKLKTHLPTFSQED

Row | SMILES | Ki (ENPP-1 ECD [1]; [4]) [nM] | Ki (ENPP-1 ECD [1]; [5]) [nM] | IC50 (ENPP-1 ECD [2]; [6]) [nM] | IC50 (ENPP-1 ECD [2]; [7]) [nM] | Ki [3] [nM] | Ki (ENPP-1 ECD [1]; [8]) [nM] | Ki (ENPP-1 ECD [1]; [9]) [nM] | IC50 (ENPP-1 ECD [2]; [10]) [nM] | Ki [3, 11] [nM] | IC50 (ENPP-1 ECD [2]; [12]) [nM] | IC50 (ENPP-1 ECD [2]; [13]) [nM] | Ki (ENPP-1 ECD [1]; [14]) [nM]
1 | COc1cc2ncnc(N3CCC(CNS(C)(=N)=O)CC3)c2cc1OC (centres unmarked) [Compound 94, N-((1-(6,7-dimethoxyquinazolin-4-yl)piperidin-4-yl)methyl)methanesulfonimidamide] | < 3 | 1.3 | 6.6 | < 10 | 83 | – | – | – | – | – | – | –
2 | COc1cc2nccc(Oc3ccc(S(C)(=N)=O)cc3)c2cc1F (centres unmarked) [Compound 114, {4-[(6-fluoro-7-methoxyquinolin-4-yl)oxy]phenyl}(imino)methyl-λ^6-sulfanone] | < 3 | 0.27 | 2.8 | – | 19 | – | – | – | – | – | – | –
3 | COc1cc2nccc(Oc3ccc([S@](C)(=N)=O)cc3)c2cc1F [Compound 114a] | – | – | – | < 10 | – | < 3 | 0.088 | 0.94 | 6.3 | – | – | –
4 | COc1cc2nccc(Oc3ccc(S(=N)(=O)C4CC4)cc3)c2cc1F (centres unmarked) [Compound 120, [cyclopropyl({4-[(6-fluoro-7-methoxyquinolin-4-yl)oxy]phenyl})imino-λ^6-sulfanyl]one] | < 3 | 0.12 | 1.1 | < 10 | 6.2 | – | – | – | – | – | – | –
5 | COc1cc2nccc(Oc3ccc([S@@](=N)(=O)C4CC4)cc3)c2cc1F [Compound 120a] | – | – | – | < 10 | – | < 3 | 0.05 | 0.46 | 6.5 | – | – | –
6 | COc1cc2nncc(Oc3ccc(S(C)(=N)=O)cc3)c2cc1OC (centres unmarked) [Compound 127, {4-[(6,7-dimethoxycinnolin-4-yl)oxy]phenyl}(imino)methyl-λ^6-sulfanone] | 3 to 300 | 5 | 30 | – | 380 | – | – | – | – | – | 10 to 1000 | –
7 | COc1ccc2c(OCc3ccc(S(C)(=N)=O)cc3F)ccnc2c1 (centres unmarked) [Compound 135, (3-fluoro-4-{[(7-methoxyquinolin-4-yl)oxy]methyl}phenyl)(imino)methyl-λ^6-sulfanone] | < 3 | 1.4 | 7.8 | – | 110 | – | – | – | – | – | – | –
8 | COc1cc2nccc(OCc3ccc(S(C)(=N)=O)cc3)c2cc1F (centres unmarked) [Compound 136] | < 3 | 0.32 | 2 | < 10 | 29 | – | – | – | – | – | – | –
9 | COc1cc2nccc(OCc3ccc(S(C)(=N)=O)cc3)c2cc1OC (centres unmarked) [Compound 138, (4-{[(6,7-dimethoxyquinolin-4-yl)oxy]methyl}phenyl)(imino)methyl-λ^6-sulfanone] | 3 to 300 | 4.6 | 37 | – | 140 | – | – | – | – | – | 10 to 1000 | –
10 | COc1cc2nccc(N3CCC(CCS(C)(=N)=O)CC3)c2cc1Cl (centres unmarked) [Compound 141, {2-[1-(6-chloro-7-methoxyquinolin-4-yl)piperidin-4-yl]ethyl}(imino)methyl-λ^6-sulfanone] | < 3 | 0.25 | 2.1 | – | 16 | – | – | – | – | – | – | –
11 | COc1cc2nccc(N3CCC(CCS(C)(=N)=O)CC3)c2cc1F (centres unmarked) [Compound 150, {2-[1-(6-fluoro-7-methoxyquinolin-4-yl)piperidin-4-yl]ethyl}(imino)methyl-λ^6-sulfanone] | < 3 | 1.3 | 8.6 | – | 62 | – | – | – | – | – | – | –
12 | COc1cc2nncc(N3CCC(CCS(C)(=N)=O)CC3)c2cc1OC (centres unmarked) [Compound 151, {2-[1-(6,7-dimethoxycinnolin-4-yl)piperidin-4-yl]ethyl}(imino)methyl-λ^6-sulfanone] | < 3 | 0.57 | 6.2 | – | 59 | – | – | – | – | – | – | –
13 | COc1cc2ncc(C#N)c(N3CCC(CCS(C)(=N)=O)CC3)c2cc1Cl (centres unmarked) [Compound 152, 6-chloro-4-(4-{2-[imino(methyl)oxo-λ6-sulfanyl]ethyl}piperidin-1-yl)-7-methoxyquinoline-3-carbonitrile] | < 3 | 0.41 | 2.4 | < 10 | 26 | – | – | – | – | – | – | –
14 | COc1cc2nccc(-c3ccc4c(c3)CN(S(C)(=N)=O)CC4)c2cc1OC (centres unmarked) [Compound 161, [7-(6,7-dimethoxyquinolin-4-yl)-1,2,3,4-tetrahydroisoquinolin-2-yl](imino)methyl-λ^6-sulfanone] | < 3 | 0.051 | 1.3 | – | 3.7 | – | – | – | – | 1.3 | – | –
15 | COc1cc2nccc(Oc3ccc(S(N)(=O)=O)cc3)c2cc1OC [reference compound] | – | – | – | – | 380 | – | – | – | – | 190 | – | 32
16 | COc1cc2ncc(C#N)c(N3CCC4(CC3)CCN(S(N)(=O)=O)C4)c2cc1F [reference compound] | – | – | – | – | 24 | – | – | – | – | 2.9 | – | 0.47

Further lines, results first:

Row | Ki (ENPP-1 ECD [1]; [4]) [nM] | Ki (ENPP-1 ECD [1]; [5]) [nM] | IC50 (ENPP-1 ECD [2]; [6]) [nM] | IC50 (ENPP-1 ECD [2]; [7]) [nM] | Ki [3] [nM] | Ki (ENPP-1 ECD [1]; [8]) [nM] | Ki (ENPP-1 ECD [1]; [9]) [nM] | IC50 (ENPP-1 ECD [2]; [10]) [nM] | Ki [3, 11] [nM] | IC50 (ENPP-1 ECD [2]; [12]) [nM] | IC50 (ENPP-1 ECD [2]; [13]) [nM] | Ki (ENPP-1 ECD [1]; [14]) [nM] | SMILES
17 | < 3 | 0.49 | 4.4 | < 10 | 31 | – | – | – | – | – | – | – | COc1ccc2c(OCc3ccc(S(C)(=N)=O)cc3)ccnc2c1 (centres unmarked) [Compound 75, imino(4-(((7-methoxyquinolin-4-yl)oxy)methyl)phenyl)(methyl)-λ^6-sulfanone]
18 | – | – | – | < 10 | – | < 3 | 0.38 | 3 | 22 | – | – | – | COc1ccc2c(OCc3ccc([S@@](C)(=N)=O)cc3)ccnc2c1 [Compound 75a]
19 | < 3 | 1.1 | 6.2 | < 10 | 29 | – | – | – | – | 1.4 | – | – | COc1ccc2c(Oc3ccc(S(C)(=N)=O)cc3)ccnc2c1 (centres unmarked) [Compound 80, imino(4-((7-methoxyquinolin-4-yl)oxy)phenyl)(methyl)-λ^6-sulfanone]
20 | – | – | – | < 10 | – | < 3 | 0.26 | 2.2 | 13 | – | – | – | COc1ccc2c(Oc3ccc([S@@](C)(=N)=O)cc3)ccnc2c1 [Compound 80a]
21 | 3 to 300 | 5.4 | 40 | – | 300 | – | – | – | – | – | 10 to 1000 | – | COc1ccc2c(Oc3ccc(S(C)(=N)=O)nc3)ccnc2c1 (centres unmarked) [Compound 101, imino({5-[(7-methoxyquinolin-4-yl)oxy]pyridin-2-yl})methyl-λ^6-sulfanone]
22 | < 3 | 1.3 | 9 | < 10 | 49 | – | – | – | – | – | – | – | CCS(=N)(=O)c1ccc(Oc2ccnc3cc(OC)ccc23)cc1 (centres unmarked) [Compound 103, ethyl(imino)(4-((7-methoxyquinolin-4-yl)oxy)phenyl)-λ^6-sulfanone]
23 | – | – | – | < 10 | – | < 3 | 0.31 | 2.2 | 30 | – | – | – | CC[S@](=N)(=O)c1ccc(Oc2ccnc3cc(OC)ccc23)cc1 [Compound 103b]
24 | < 3 | 0.12 | 1.4 | – | 13 | – | – | – | – | – | – | – | COc1ccc2c(OCc3cccc(S(C)(=N)=O)c3)ccnc2c1 (centres unmarked) [Compound 133, imino(3-{[(7-methoxyquinolin-4-yl)oxy]methyl}phenyl)methyl-λ^6-sulfanone]
25 | – | – | – | < 10 | – | < 3 | 0.055 | 0.5 | 4.1 | – | – | – | COc1ccc2c(OCc3cccc([S@@](C)(=N)=O)c3)ccnc2c1 [Compound 133a]

Reference: patent US11780849B2, “Imino sulfanone inhibitors of ENPP1” (Volastra Therapeutics, Inc., priority 2020, dated 2023)
